From publication PMC7734574 (International Journal of Molecular Sciences, 2020)
Where two headings read alike, the source gives them in different places. One block for each compound: values may come before it.

Key:
[1] = photoswitching followed by UV/VIS spectroscopy; format: physicochemical; conditions: for photoconversion on back switching to the E-isomer: DMSO
Source text: (§1) In order to determine the isomer ratios of the PSS as well as to identify the optimal excitation wavelengths for the E/Z isomerizations, compounds 3–7 were characterized by UV/VIS and NMR spectroscopy. Due to their poor water solubility along with the low molar absorption coefficients of diazocines, all compounds were initially analyzed in DMSO.
By irradiation at 530 nm, the diazocine-based compounds 5–7 can be switched back quantitatively to the Z-isomer. Since the associated spectra completely overlap with the spectra of the pure Z-isomers, they are not shown for reasons of clarity. To check the reversibility of the photoswitching, long-term stability measurements with 20 switching cycles were performed. For this purpose, the compounds were irradiated alternately for 20 s at 405 nm and 530 nm, respectively. After each irradiation, an UV/VIS spectrum was recorded.
(§2) UV/VIS spectra were measured using a Varian Cary® 50 Scan UV/VIS photometer from Agilent (Waldbronn, Germany) equipped with a Varian Cary PCB 150 thermostat either at 25 °C or 37 °C. […] The fitting of thermal relaxations was done with GraphPad Prism® (v.7.03, GraphPad Software, San Diego, CA, USA).

[2] = target: T1, VEGFR-2 (purified kinase domain, KDR active) (Homo sapiens, UniProt P35968); assay: luminescence-based ADP-Glo kinase assay under controlled light conditions; format: biochemical; parameters: VEGFR-2 (purified kinase domain, KDR active, Promega); purchased Promega
T1 sequence (P35968 834-1162 limits assumed): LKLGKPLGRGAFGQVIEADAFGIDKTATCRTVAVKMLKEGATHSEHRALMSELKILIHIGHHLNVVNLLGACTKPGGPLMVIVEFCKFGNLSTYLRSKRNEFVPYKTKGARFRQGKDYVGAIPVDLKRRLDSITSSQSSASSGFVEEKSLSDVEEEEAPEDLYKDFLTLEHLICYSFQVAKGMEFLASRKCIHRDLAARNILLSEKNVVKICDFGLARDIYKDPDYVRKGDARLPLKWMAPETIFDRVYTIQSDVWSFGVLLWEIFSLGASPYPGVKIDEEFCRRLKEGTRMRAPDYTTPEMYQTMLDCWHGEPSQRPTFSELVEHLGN

[3] = thermal back isomerization (half-life of the metastable form) by UV/VIS spectroscopy; format: physicochemical; conditions: 37 °C, DMSO (UV/VIS)
Procedure: For the meta-linked derivative 3 (Figure 6a), a maximum shift of the PSS toward the Z-isomer can be achieved by irradiation at 365 nm. By NMR spectroscopy, a Z-isomer content of 83% was determined in the PSS. […] Back switching to the E-isomers E-3 and E-4 is possible by irradiation at 435 nm (3) or 470 nm (4), respectively. Furthermore, half-lives of the azobenzene derivatives were determined by UV/VIS spectroscopy at 37 °C in DMSO.
as §2

[4] = isomer ratio of the photostationary state by NMR spectroscopy; format: physicochemical
Source text: as §1

[5] = target: T1, VEGFR-2 (purified kinase domain, KDR active); conditions: cited from earlier work
[6] = axitinib, DMSO (NMR), cited from earlier work
[7] = test system: lysates of human umbilical vein endothelial cells (HUVECs); assay: kinome activity profiling (PamGene) of treated cell lysate; format: biochemical; conditions: 20 µM, irradiated at 405 nm, HUVEC lysate, 10% DMSO
[8] = E-isomer, in the dark (unirradiated), 1% DMSO
[9] = both irradiated and unirradiated compounds
[10] = PSS after irradiation at 405 nm, 10% DMSO
[11] = Z-isomer, in the dark (unirradiated), 10% DMSO
[12] = after irradiation at 405 nm, 10% DMSO
[13] = DMSO (NMR), irradiation at 405 nm
[14] = DMSO, NMR, irradiation at 365 nm

Compound: CNC(=O)c1ccccc1Sc1ccc2c(/N=N/c3ccccn3)n[nH]c2c1 [Compound 2, (E)‐N‐methyl‐2‐((3‐(pyridin‐2‐yldiazenyl)‐1H‐indazol‐6‐yl)thio)benzamide]
spectral change upon irradiation ([1]; 20 µM in DMSO and water with 10 % DMSO, 365, 385, 405, 420 and 470 nm): No spectral change
IC50 [2, 8]: 415 nM

Compound: CNC(=O)c1ccccc1Sc1ccc2c(-c3ccc(/N=N/c4ccccc4)cc3)n[nH]c2c1 [Compound 4, (E)‐N‐methyl‐2‐((3‐(4‐(phenyldiazenyl)phenyl)‐1H‐indazol‐6‐yl)thio) benzamide]
k of exponential fit of thermal back isomerization [3]: 0.121
photoconversion on back switching to the E-isomer ([1]; irradiation at 470 nm): almost quantitative
residual activity (plateau) ([2]; E-isomer in the dark): 43%
IC50 [2, 8]: 1020 nM
IC50 ([2]; PSS after irradiation at 385 nm, 1% DMSO): 1440 nM
residual activity (plateau) ([2]; after irradiation at 385 nm): 13%
IC50 [2, 9]: ~1000 nM
PSS (E/Z%) ([4]; DMSO (NMR), irradiation at 385 nm): 20/80

Compound: CNC(=O)c1ccccc1Sc1ccc2c(/C=C/c3ccccn3)n[nH]c2c1 [Compound 1, Axitinib]
difference in biological activities of Z-axitinib and E-axitinib [5]: 43 fold
PSS (E/Z%) ([6]; 365 nm (E → Z)): 51/49
PSS (E/Z%) ([6]; 385 nm (Z → E)): 88/12

Compound: CNC(=O)c1ccccc1Sc1ccc2c(-c3cccc(/N=N/c4ccccc4)c3)n[nH]c2c1 [Compound 3, (E)‐N‐methyl‐2‐((3‐(3‐(phenyldiazenyl)phenyl)‐1H‐indazol‐6‐yl)thio) benzamide]
k of exponential fit of thermal back isomerization [3]: 0.01608
photoconversion on back switching to the E-isomer ([1]; irradiation at 435 nm): almost quantitative
residual activity (plateau) ([2]; E-isomer in the dark): 33%
IC50 [2, 8]: 1080 nM
IC50 ([2]; PSS after irradiation at 365 nm, 1% DMSO): 1290 nM
residual activity (plateau) ([2]; after irradiation at 365 nm): 5%
IC50 [2, 9]: ~1000 nM
PSS (E/Z%) [4, 14]: 17/83
Z-isomer content in the PSS [4, 14]: 83%

Second part, led by results:

k of exponential fit of thermal back isomerization [3]: 0.09514
IC50 [2, 10]: 214 nM
IC50 [2, 11]: > 10000 nM
residual activity (plateau) [2, 12]: 6%
PSS (E/Z%) [4, 13]: 47/53
Compound: CNC(=O)c1ccccc1Sc1ccc2c(-c3ccc4c(c3)/N=N\c3ccccc3SC4)n[nH]c2c1 [Compound 5, (Z)‐2‐((3‐(12H‐dibenzo[b,f][1,4,5]thiadiazocin‐3‐yl)‐1H‐indazol‐6‐yl)thio)‐N‐methylbenzamide]
kinase activities (phosphorylation degree of substrate peptides) compared to DMSO [7]: moderate decrease of kinase activities

k of exponential fit of thermal back isomerization [3]: 0.1853
IC50 [2, 10]: 251 nM
IC50 [2, 11]: > 10000 nM
residual activity (plateau) [2, 12]: 10%
PSS (E/Z%) [4, 13]: 25/75
E-isomer content in the PSS ([4]; DMSO, irradiation at 405 nm): 25%
Compound: CNC(=O)c1ccccc1Sc1ccc2c(-c3ccc4c(c3)CSc3ccccc3/N=N\4)n[nH]c2c1 [Compound 6, (Z)‐2‐((3‐(12H‐dibenzo[b,f][1,4,5]thiadiazocin‐2‐yl)‐1H‐indazol‐6‐yl)thio)‐N‐methylbenzamide]

k of exponential fit of thermal back isomerization [3]: 0.4711
IC50 [2, 10]: 493 nM
residual activity ([2]; Z-isomer in the dark, 10% DMSO): ≥ 37%
PSS (E/Z%) [4, 13]: 60/40
E-isomer content in the PSS ([4]; DMSO, irradiation at 405 nm): 60%
Compound: CNC(=O)c1ccccc1Sc1ccc2c(-c3ccc4c(c3)/N=N\c3ccccc3CC4)n[nH]c2c1 [Compound 7, (Z)‐2‐((3‐(11,12‐dihydrodibenzo[c,g][1,2]diazocin‐3‐yl)‐1H‐indazol‐6‐yl)thio)‐N‐methylbenzamide]
